Measured values: US10106565B2 (priority 2008, dated 2018)

Assays:
IL-1ra−/− mice = experiment: Spontaneous arthritis in IL-1ra-/- mice; type: in vivo; details: 10 mg/kg weekly intravenous from 8 weeks of age; at the age of 15 weeks
Excerpt: Dendrimer ABP (azabisphosphonate) or Gc1 (FIG. 16A) was initially compared to two other dendrimer-based systems, dendrimer azamonophosphonate (AMP) and dendrimer polypropyleneimine (PPI), for antiarthritic activity in mice, according to the following protocole, described by Hayder et al. Science Transl. Med. 2011, 3, 81ra35.
IL-1ra−/− mice develop spontaneous arthritis beginning at 4 weeks of age. By 10 weeks, 100% of mice show full-blown disease, with marked paw swelling. We assessed the effect of dendrimers ABP, AMP, and PPI in this model of arthritis via weekly intravenous injections (10 mg/kg) starting at 8 weeks of age. The evolution of inflammation and arthritis was followed by measuring the hind paw swelling and by clinical arthritic score. The arthritic score per animal was the sum of the scores attributed to the four paws (28).

CD4 T lymphocytes = experiment: Proliferation of CD4 T lymphocytes in PBMC induced by IL2 (CFSE dilution, flow cytometry); type: cell-based, human; details: 20 μM dendrimer; PBMC with IL2; IL2 alone gives 70.2%
Experimental: Peripheral blood samples are obtained from adult healthy volunteers through the Etablissement Français du Sang (Toulouse, France). Peripheral Blood Mononuclear Cells (PBMC) are isolated by Ficoll density gradient (Amersham Biosciences AB).
PBMC are cultured at a final concentration of 1.5×10^6 cells/mL in complete RPMI 1640 medium, i.e. supplemented with 10% of heat inactivated fetal calf serum (FCS) (Invitrogen), 1 mM sodium pyruvate (Invitrogen), 2 mM L-glutamine, 100 U/mL penicillin and 100 μg/mL streptomycin (Cambrex Bioscience). Proliferation is activated by 400 U/mL of interleukin 2 (IL2) (Sanofi-Aventis) (a “growth factor” for lymphocytes). […]
Proliferation of CD4 T lymphocytes is evaluated by flow cytometry by analyzing the intracellular dilution of a fluorescent probe: the 5,6-carboxyfluorescein diacetate N-succinimidylester (CFSE). […] Then, CFSE dilution is analyzed by flow cytometry to measure the proliferation CD4 T cells. After gating for CD4 positive cells (mouse anti-human CD4-PE-Cy5 clone 13B8.2, Beckman-Coulter), CFSE fluorescence intensities are analyzed, and the percentage of CD4 T cells which have proliferated during the culture is taken into account. […] The overall differences are evaluated by analysis of variance test (ANOVA) with Sigma Stat software (Systat Software).

[1] = system: purified CD4 T lymphocytes; type: cell-based, human; details: 20 μM dendrimer; anti-CD3/anti-CD28 microbeads and IL2; without dendrimer 88%
Experimental: PBMC from adult healthy volunteers are prepared as described in example 5.1.
CD4 T lymphocytes are then purified from PBMC by positive selection using microbeads conjugated with anti-CD4 mAb, according to the manufacturer's instructions (Miltenyi Biotec). The cells obtained after the purification are >98% pure (as verified by flow cytometry).
Purified CD4 T lymphocytes are cultured at a final concentration of 1.5×10^6 cells/mL in complete RPMI 1640 medium (as described in example 5.1). Then, their proliferation is triggered by microbeads coated with anti-CD3 and anti-CD28 mAbs (Dynabeads®, Dynal Biotech ASA). Dendrimer Gc1 and its analogs are made soluble in sterile water at 2 mM and filtered through a 0.2 μm membrane before use at 20 μM in culture.
Proliferation of purified CD4 T lymphocytes is evaluated by flow cytometry by analyzing the intracellular dilution of a fluorescent probe: the CFSE.

For `CN(/N=C/c1ccc(OP2(Oc3ccc(/C=N/N(C)P(=S)(Oc4ccc(CCN(CP(=O)(O)O)CP(=O)(O)O)cc4)Oc4ccc(CCN(CP(=O)(O)O)CP(=O)(O)O)cc4)cc3)=NP(Oc3ccc(/C=N/N(C)P(=S)(Oc4ccc(CCN(CP(=O)(O)O)CP(=O)(O)O)cc4)Oc4ccc(CCN(CP(=O)(O)O)CP(=O)(O)O)cc4)cc3)(Oc3ccc(/C=N/N(C)P(=S)(Oc4ccc(CCN(CP(=O)(O)O)CP(=O)(O)O)cc4)Oc4ccc(CCN(CP(=O)(O)O)CP(=O)(O)O)cc4)cc3)=NP(Oc3ccc(/C=N/N(C)P(=S)(Oc4ccc(CCN(CP(=O)(O)O)CP(=O)(O)O)cc4)Oc4ccc(CCN(CP(=O)(O)O)CP(=O)(O)O)cc4)cc3)(c3ccc(/C=N/N(C)P(=S)(Oc4ccc(CCN(CP(=O)(O)O)CP(=O)(O)O)cc4)Oc4ccc(CCN(CP(=O)(O)O)CP(=O)(O)O)cc4)cc3)=N2)cc1)P(=S)(Oc1ccc(CCN(CP(=O)(O)O)CP(=O)(O)O)cc1)Oc1ccc(CCN(CP(=O)(O)O)CP(=O)(O)O)cc1` (stereo not shown) [Gc1], the arthritic score (IL-1ra−/− mice) was “significant decrease”, the paw swelling (IL-1ra−/− mice) was “significant decrease” and the “CD4 T lymphocytes that have divided” value (CD4 T lymphocytes) was 17.2%. The “purified CD4 T lymphocytes that have divided” value [1] was 10.2%.
